Assay [1] is described as follows: Binding constant for complexation with Fructose by Fluorescence experiment.
Assay [2] in a line: Binding constant for complexation with glucose by Fluorescence experiment.
Assay [3] can be described thus: Selectivity for Glucose to Fructose was determined by Fluorescence experiment.
Assay [4] is described as follows: Binding constant for complexation with Galactose by Fluorescence experiment.
Assay [5] in a line: Fluorescence intensity change with respect to glucose binding (100 mM) was determined by Fluorescence experiment; Increased by 7.0 fold.
A short description of assay [6]: Fluorescence intensity change with respect to glucose binding (100 mM) was determined by Fluorescence experiment; Increased by 0.9 fold.
The nature of assay [7]: Fluorescence intensity change with respect to glucose binding (100 mM) was determined by Fluorescence experiment; Decreased by 0.5 fold.
Assay [8] can be described thus: Binding constant for complexation with Fructose by Fluorescence experiment; Fluorescence was too small for an accurate Ka determination.
The nature of assay [9]: Selectivity for Glucose to Fructose was determined by Fluorescence experiment; Fluorescence intensity change upon binding with fructose was too small for an accurate Ka determination.
Assay [10] is described as follows: Fluorescence intensity change with respect to glucose binding (100 mM) was determined by Fluorescence experiment; Increased by 4.3 fold.
Assay [11] in a line: Fluorescence intensity change with respect to glucose binding (100 mM) was determined by Fluorescence experiment; PBA is not fluorescent.
The nature of assay [12]: Fluorescence intensity change with respect to glucose binding (100 mM) was determined by Fluorescence experiment; Decreased by 0.4 fold.
The nature of assay [13]: Fluorescence intensity change with respect to glucose binding (100 mM) was determined by Fluorescence experiment; Increased by 5.5 fold.

Results on 8 compounds are retold here after ChEMBL document CHEMBL1134979, “A glucose-selective fluorescence sensor based on boronic acid-diol recognition” (Bioorg Med Chem Lett, 2002).

In the case of `CN(Cc1ccccc1B(O)O)Cc1c2ccccc2c(CN(C)C(=O)Cc2ccccc2CC(=O)N(C)Cc2c3ccccc3c(CN(C)Cc3ccccc3B(O)O)c3ccccc23)c2ccccc12`, the Ka is 34 M⁻¹ in assay [1], 1470 M⁻¹ in assay [2] and 30 M⁻¹ in [4]. In assay [3], this compound gave a Selectivity of 43. Moreover, the Activity result in assay [5] was “Increased by 7.0 fold”.

With `OB(O)c1ccc[n+](Cc2c3ccccc3c(C[n+]3cccc(B(O)O)c3)c3ccccc23)c1`, in assay [2], the Ka amounted to 2510 M⁻¹. In addition, the Activity result in assay [6] was “Increased by 0.9 fold”.

As for `CC1=C2C[C@H]3Cc4c(CO)oc(-c5ccc(B(O)O)cc5)c4C3=C2Oc2cc(B(O)O)ccc21`, the Ka in [2] was 4000 M⁻¹; in assay [8], “Fluorescence was too small for an accurate Ka determination”; in assay [4], 100 M⁻¹. Moreover, the Activity entry in [7] is “Decreased by 0.5 fold”. The Selectivity entry in assay [9] is listed as “Fluorescence intensity change upon binding with fructose was too small for an accurate Ka determination”.

As for `CN(Cc1ccccc1B(O)O)Cc1c2ccccc2c(CN(C)C(=O)CCCCC(=O)N(C)Cc2c3ccccc3c(CN(C)Cc3ccccc3B(O)O)c3ccccc23)c2ccccc12`, the Ka in assay [1] was 77 M⁻¹; in assay [2], 638 M⁻¹; in assay [4], 105 M⁻¹. The same compound came in with a Selectivity in [3] of 8. The Activity entry in assay [10] was “Increased by 4.3 fold”.

As for `CN(Cc1ccccc1B(O)O)Cc1c2ccccc2c(CN(C)Cc2ccccc2B(O)O)c2ccccc12`, the Ka came to 316 M⁻¹ in assay [1], 3980 M⁻¹ in [2] and 158 M⁻¹ in [4]. Also, the Selectivity in [3] was 13.

On to `OB(O)c1ccccc1`, for which the values for the Ka in assay [1], in assay [2] and in [4] were 162 M⁻¹, 5 M⁻¹ and 15 M⁻¹, respectively. In addition, in [11], the Activity entry is “PBA is not fluorescent”. Also, the Selectivity in assay [3] stood at 0.03.

On to `O=C1c2cccc3cc([N+](=O)[O-])cc(c23)C(=O)N1c1cccc(B(O)O)c1`, for which the Ka in assay [1] is 476 M⁻¹; in [2], 38 M⁻¹. The Selectivity in assay [3] is 0.08. Also, the Activity entry in [12] is reported as “Decreased by 0.4 fold”.

Turning to `CN(Cc1ccccc1B(O)O)Cc1c2ccccc2c(CN(C)C(=O)c2ccccc2C(=O)N(C)Cc2c3ccccc3c(CN(C)Cc3ccccc3B(O)O)c3ccccc23)c2ccccc12`, the results for the Ka in assay [1], in assay [2] and in assay [4] were 283 M⁻¹, 178 M⁻¹ and 33 M⁻¹, respectively. The Activity entry in assay [13] was “Increased by 5.5 fold”. The same compound returned a Selectivity in [3] of 0.6.
